Reference: patent EP0190464A2, “Novel anti-cancer drugs” (YEDA RESEARCH AND DEVELOPMENT COMPANY LIMITED, priority 1984, dated 1986)

Key:
[1] = test system: 38C-13 tumor cells; experiment: Inhibition of DNA synthesis ([3H]-methylthymidine incorporation); format: cell-based, murine; details: Fig. 2
Method: Inhibition of DNA synthesis by the free platinum compounds of their complexes was determined as follows. Tumor cells (2-5 x 10^4/0.1 ml) suspended in their suitable grwoth media were dispersed into wells of microtiter plates. The Platinum compounds or complexes were added to the cells in […] aliquots. The plates were incubated for 21 hr at 37 °C in a humidified atmosphere of 5% CO2 in air. At that time 10 µl containing 0.5 µci of [^3H]-methylthymidine were added to each well and the plates were incubated for 3 hr as above. The reaction was terminated using a Titerteck cell harvester.
Pt complexes used in the in vitro and in vivo experiments were prepared under conditions of maximal binding, that is, 98-100% binding of the free drugs. In vivo experiments were performed with cis-Pt and cis-aq complexes. […] Cis-Pt and cis-aq complexes of dex-NH2 were tested and found to be active in vitro against 5 murine tumors (EL-4, 38-C13, L1210, RDM and F-9) and 2 human derived tumors (Hela and Osteosarcoma). […] This activity was lost, however upon exhaustive dialysis.

[2] = test system: tumors; experiment: Activity against tumors in vivo (general statement); details: uncomplexed salt
[3] = test system: F-9 murine embryonal carcinoma cells; experiment: In vivo suppression of F-9 embryonal carcinoma, I.P. tumor and I.P. treatment; parameters: species or system Balb/c mice; effective dose (range): unit not given here; details: for survival (average): free drug at optimal doses, one day after tumor
Method: In vivo experiments were performed with F-9 murine embryonal carcinoma cells which were maintained in-vitro in DMEM supplemented with 10% fetal calf serum, glutamine and antibiotics, in gelatine (0.1%) coated culture flasks. In-vivo experiments were performed in female Balb/c mice at the age of 2-3 months.
In experiment I, 300,000 tumor cells were inoculated intraperitoneally (I.P.) into Balb/c mice.
The in vivo chemotherapeutic effect of the different complexes in comparison with free drugs was evaluated by the suppression of F9 embryonal carcinoma in Balb/c mice. […]

[4] = Toxicity in tumor-free mice, single I.V. injection; format: in vivo; details: free drugs, ICR mice
Method: Preliminary toxicity experiments with CM-dex and ?ex-NH2 complexes were performed to compare the toxicity of the free drugs and the complexes in tumor-free ICR mice. Pairs of mice were given a single I.V. injection of each of the drugs or drug complexes at a wide concentration range. Death of mice due to toxicity occurred between 1 to 7 days after injection. The results (Table 8) indicate the maximal non-toxic (none of the mice died) and the minimal toxic dose (death of both mice). […] The CM-dex T-40 of both drugs were also toxic although somewhat less than the free drugs, with no significant difference between the cis-Pt and cis-aq complexes. […] The dex-NH2 were also considerably less toxic than the free drugs.

[5] = Exp. II: 600,000 cells I.P., treatment 2 days after tumor, 60 µg
[6] = Exp. I: 300,000 tumor cells I.P., 50 µg, out of 5 TBM

| SMILES | fold less inhibitory than cis-Pt and cis-aq [1] [fold] | IC50 ([1]; read-out: 50% inhibition of DNA synthesis, 21 hr at 37°C with drug, then 3 hr [3H]-methylthymidine pulse) [µM] | activity against tumors in vivo [2] | died of the tumor ([3]; Exp. I: 300,000 tumor cells I.P., 100 ug I.P. 1 day after tumor inoculation) | time of death of the tumor after receiving the tumor cells ([3]; Exp. I: 300,000 tumor cells I.P., 100 ug I.P. day 1, the 1/5 mouse that died of tumor) [days] | protective against the tumor [3, 5] | survival (average) ([3]; F9 tumor, Table 7) | toxicity compared with cis-Pt [4] | died of drug toxicity [3, 6] | died of the tumor [3, 6] | survived [3, 6] | non-protective against the tumor [3, 5] | toxic [3, 5] | effective dose (range) ([3]; F9 tumor, single dose, Table 5) | toxicity at a slightly higher than optimal dose ([3]; F9 tumor, free drug, Table 7) |
| --- | --- | --- | --- | --- | --- | --- | --- | --- | --- | --- | --- | --- | --- | --- | --- |
| [Cl][Pt-2]([Cl])([Cl])[Cl].[K+].[K+] [K2PtCl4] | 20 | 20 | essentially inactive | – | – | – | – | – | – | – | – | – | – | – | – |
| N.N.[Cl][Pt][Cl] [cis-Pt, Cis-dichlorodiammine Platinum (II)] | – | – | – | 1/5 | 54 | 4/5 | 60-80% | – | – | – | – | – | – | – | – |
| N.N.O.O.O=[N+]([O-])[O-].O=[N+]([O-])[O-].[Pt+2] [cis-aq, diaquodiammine Platinum (II)-nitrate] | – | – | – | – | – | – | 60-80% | more toxic than cis-Pt | 1 | 3 | 1 | 2/5 | 3/5 | 40 | at least partially toxic |
